Measurements from patent publication US11850213B2, “Ophthalmic compositions of rifamycins and uses thereof” (AMD THERAPEUTICS LLC, priority 2014, dated 2023).
In brackets after ≈: the same amount, converted by molar mass. Where two headings read alike, the source gives them in different places.

Tests used:
[1] = PK study, retina exposure after 0.25% rifampicin eye drop, LC/MS; assay type: in vivo, Sprague-Dawley rats; settings: male, Sprague-Dawley, 37.5 micro gram, rat
Method: 15 microL of an eye drop formulation which is presented as Example 1A listed in Table 1 was used to dose the compound to a single eye of a rat. […] At time points of 1 hr, 3 hr, and 7 hr after the eye drop application, retina tissues were extracted from the rats under a dissection microscope. In addition, “Non-treatment” negative control was taken, and retina was extracted from a single rat without any treatment. Retinas were placed in a 1.5 ml microcentrifuge tubes (1 retina/tube), and they were extensively washed by DPBS. After the washing procedure, retina tissue in a microcentrifuge tube was frozen in dry ice, and it was stored for quantification by LC/MS analysis.

[2] = Dose-response study, retina exposure after 0.25% and 0.5% rifampicin eye drops, LC/MS; assay type: in vivo, Sprague-Dawley rats; settings: male, Sprague-Dawley, rat, topical
Method: 15 microL of eye drop formulations which are presented as Example 1A and 6A listed in Table 1 and Table 2, respectively, were used to dose the compound to a single eye of a rat. […] In 1 hr after the eye drop application, retina tissues were extracted from the rats under a dissection microscope. In addition, “Non-treatment” negative control was taken, and retina was extracted from a single rat without any treatment. Retinas were placed in a 1.5 ml microcentrifuge tubes (1 retina/tube), and they were extensively washed by DPBS. After the washing procedure, retina tissue in a microcentrifuge tube was frozen in dry ice, and it was stored for quantification by LC/MS analysis.

[3] = Solubility of AMD101 in H2O; assay type: physicochemical; settings: water
Method: In H2O, the AMD101 can dissolve at approximately 1.4 mg/ml only. However, the concentration was increased as provided herein employing suitable excipients. Those formulations are stable for weeks.

[4] = Retina exposure of rifampicin after subcutaneous injection, LC/MS; assay type: in vivo, Sprague-Dawley rats; settings: male, Sprague-Dawley, rat, SC injection 20 mg/Kg (Example 6A), n = 4
Method: At time points of 1 hr, 3 hr, and 7 hr after the SC injection, retina tissues were extracted from the rats under a dissection microscope. In addition, “Non-treatment” negative control was taken, and retina was extracted from two rats without any treatment. Retinas were placed in a 1.5 ml microcentrifuge tubes (1 retina/tube), and they were extensively washed by DPBS. After the washing procedure, retina tissue in a microcentrifuge tube was frozen in dry ice, and it was stored for quantification by LC/MS analysis. […] Amounts detected in retina by the SC injection were equivalent to those delivered by the eye drop application (See Table 3).

[5] = Retina exposure of rifampicin after topical eye drops (3 or 10 drops), LC/MS; assay type: in vivo, Sprague-Dawley rats; settings: Rat, 0.25%
Method: The remaining two rats received the same applications, but 10 drops, to each eye under isoflurane sedation. A single drop contained 5 micro L of the formulation, and applications of each drop had 30 min interval. After the eye drop application, retinas were extracted under a dissection microscope. In addition, “Non-treatment” negative control was taken, and retina was extracted from two rats without any treatment. Retinas were placed in a 1.5 ml microcentrifuge tubes (1 retina/tube), and they were extensively washed by DPBS. After the washing procedure, retina tissue in a microcentrifuge tube was frozen in dry ice, and it was stored for quantification by LC/MS analysis.

[6] = Rabbit, 0.5% 50 microL, 250 micro g, Sigurdsson et al (2007); cited from earlier work

Tmax ([1]; topical or ocular, 0.25% eye drop 15 microL) [h]	concentration at 1 hr ([1]; topical, 0.25% eye drop 15 microL (Example 1A), 1 hr, n = 4) [ng/g]	concentration at 3 hr ([1]; topical, 0.25% eye drop 15 microL (Example 1A), 3 hr, n = 4) [ng/g]	concentration at 7 hr ([1]; topical, 0.25% eye drop 15 microL (Example 1A), 7 hr, n = 4) [ng/g]	concentration at 1 hr ([2]; 37.5 micro gram) [ng/g]	concentration at 1 hr ([2]; 75 micro gram) [ng/g]	solubility [3] [µg/mL]	concentration at 1 hr ([4]; 1 hr) [ng/g]	concentration at 3 hr ([4]; 3 hr) [ng/g]	concentration at 7 hr ([4]; 7 hr) [ng/g]	Drug amount detected in retina ([5]; 3 drops (15 microL, 37.5 micro g))	Drug amount detected in retina ([5]; 10 drops (50 microL, 125 micro g))	Compound	Drug amount detected in retina [6]
~1	1580	1150	104	1580	6070	~1400 (≈ 1700 µM)	2660	3860	2520	~1,288 ng/g retina ng/g retina tissue	~2,939 ng/g retina ng/g retina tissue	CO[C@H]1/C=C/O[C@@]2(C)Oc3c(C)c(O)c4c(O)c(c(/C=N/N5CCN(C)CC5)c(O)c4c3C2=O)NC(=O)/C(C)=C\C=C\[C@H](C)[C@H](O)[C@@H](C)[C@@H](O)[C@@H](C)[C@H](OC(C)=O)[C@@H]1C [Rifampicin]	
												C[C@@H]1C[C@H]2[C@@H]3CCC4=CC(=O)C=C[C@]4(C)[C@@]3(F)[C@@H](O)C[C@]2(C)[C@@]1(O)C(=O)CO [Dexamethasone]	~33 ng/g retina ng/g retina tissue
